Assay [1] addresses Histone-lysine N-methyltransferase NSD2 (Homo sapiens, UniProt O96028). Type of assay: biochemical.
A short description of assay [2]: C. albicans growth with fluconazole, confirmation, fluorescence, retest (AID 2467). It is filed as functional, cell-based.
For assay [3], the target named is Dual specificity protein phosphatase 3 (Homo sapiens, UniProt P51452). Nature of the assay: VHR1 phosphatase inhibitors, primary screen, biochemical, absorbance, uHTS (AID 1654).
Assay [4] is described as follows: HepG2 cell cytotoxicity, dose response, cytotoxicity control for Shn3 inhibitor project, CellTiter-Glo, cherry-picked (AID 624134). Type of assay: functional, cell-based. For orientation: ATP-based viability assays read luminescence as a measure of living cells.
For assay [5], the target named is T1, Replicative DNA helicase DnaB (Mycobacterium tuberculosis, UniProt P9WMR3).
T1 sequence (P9WMR3 whole entry): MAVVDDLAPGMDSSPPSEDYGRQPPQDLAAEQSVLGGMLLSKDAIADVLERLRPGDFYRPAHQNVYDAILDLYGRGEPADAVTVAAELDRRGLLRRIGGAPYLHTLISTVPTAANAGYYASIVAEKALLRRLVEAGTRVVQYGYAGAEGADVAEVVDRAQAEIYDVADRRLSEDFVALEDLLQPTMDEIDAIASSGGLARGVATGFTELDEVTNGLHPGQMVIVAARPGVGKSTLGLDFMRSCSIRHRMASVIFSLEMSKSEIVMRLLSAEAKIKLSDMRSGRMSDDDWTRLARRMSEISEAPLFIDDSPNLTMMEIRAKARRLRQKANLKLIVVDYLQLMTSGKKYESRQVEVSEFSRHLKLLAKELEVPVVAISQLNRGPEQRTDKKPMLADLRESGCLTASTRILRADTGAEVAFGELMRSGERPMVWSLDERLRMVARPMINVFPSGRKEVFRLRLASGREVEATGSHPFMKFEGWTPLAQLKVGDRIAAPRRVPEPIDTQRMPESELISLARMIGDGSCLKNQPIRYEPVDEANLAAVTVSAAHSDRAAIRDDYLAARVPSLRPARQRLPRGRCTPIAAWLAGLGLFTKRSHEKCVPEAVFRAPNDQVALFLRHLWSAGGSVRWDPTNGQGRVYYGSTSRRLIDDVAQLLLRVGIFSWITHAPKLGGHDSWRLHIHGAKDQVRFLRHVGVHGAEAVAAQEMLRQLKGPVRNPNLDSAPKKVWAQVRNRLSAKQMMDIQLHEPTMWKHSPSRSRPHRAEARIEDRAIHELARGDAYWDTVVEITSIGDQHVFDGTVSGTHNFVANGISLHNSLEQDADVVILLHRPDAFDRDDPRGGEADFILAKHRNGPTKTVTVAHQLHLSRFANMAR
Put plainly: DnaB Intein secondary assay Measured in Biochemical System Using Plate Reader - 2047-04_Inhibitor_Dose_DryPowder_Activity. [Related pubchem assays (depositor defined):AID2223].

Assay [6] addresses T2, Tyrosine-protein phosphatase non-receptor type 7 (Homo sapiens, UniProt P35236).
T2 sequence (P35236 whole entry): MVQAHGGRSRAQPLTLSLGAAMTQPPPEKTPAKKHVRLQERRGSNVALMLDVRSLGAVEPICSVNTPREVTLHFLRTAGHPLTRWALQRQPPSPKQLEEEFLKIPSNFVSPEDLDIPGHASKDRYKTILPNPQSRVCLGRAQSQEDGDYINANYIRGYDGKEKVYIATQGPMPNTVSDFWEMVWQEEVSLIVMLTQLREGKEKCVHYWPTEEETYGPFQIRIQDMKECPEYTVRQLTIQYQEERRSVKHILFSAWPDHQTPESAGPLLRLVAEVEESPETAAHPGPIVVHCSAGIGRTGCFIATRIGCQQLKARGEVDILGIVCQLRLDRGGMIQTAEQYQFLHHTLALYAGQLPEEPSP
It is filed as functional.

Assay [7] concerns the target Cyclin-dependent kinase 7 (Homo sapiens, UniProt P50613). Type of assay: functional.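 Note: value comes from a kinome-wide kinase profiling panel in which CDK7 is one member.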
Assay [8] deals with Tyrosine-protein kinase Lyn (Homo sapiens, UniProt P07948). It is filed as functional.
Assay [9] addresses Wee1-like protein kinase (Homo sapiens, UniProt P30291). Put plainly: Navigating the Kinome. Panel member name: WEE1. It is filed as functional.
The target of assay [10] is T3, Sentrin-specific protease 6 (Homo sapiens, UniProt Q9GZR1).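 Note: Luminescence-based dose-response confirmatory assay of SENP6 inhibition, following up an ultra-high-throughput screen.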
T3 sequence (Q9GZR1 whole entry): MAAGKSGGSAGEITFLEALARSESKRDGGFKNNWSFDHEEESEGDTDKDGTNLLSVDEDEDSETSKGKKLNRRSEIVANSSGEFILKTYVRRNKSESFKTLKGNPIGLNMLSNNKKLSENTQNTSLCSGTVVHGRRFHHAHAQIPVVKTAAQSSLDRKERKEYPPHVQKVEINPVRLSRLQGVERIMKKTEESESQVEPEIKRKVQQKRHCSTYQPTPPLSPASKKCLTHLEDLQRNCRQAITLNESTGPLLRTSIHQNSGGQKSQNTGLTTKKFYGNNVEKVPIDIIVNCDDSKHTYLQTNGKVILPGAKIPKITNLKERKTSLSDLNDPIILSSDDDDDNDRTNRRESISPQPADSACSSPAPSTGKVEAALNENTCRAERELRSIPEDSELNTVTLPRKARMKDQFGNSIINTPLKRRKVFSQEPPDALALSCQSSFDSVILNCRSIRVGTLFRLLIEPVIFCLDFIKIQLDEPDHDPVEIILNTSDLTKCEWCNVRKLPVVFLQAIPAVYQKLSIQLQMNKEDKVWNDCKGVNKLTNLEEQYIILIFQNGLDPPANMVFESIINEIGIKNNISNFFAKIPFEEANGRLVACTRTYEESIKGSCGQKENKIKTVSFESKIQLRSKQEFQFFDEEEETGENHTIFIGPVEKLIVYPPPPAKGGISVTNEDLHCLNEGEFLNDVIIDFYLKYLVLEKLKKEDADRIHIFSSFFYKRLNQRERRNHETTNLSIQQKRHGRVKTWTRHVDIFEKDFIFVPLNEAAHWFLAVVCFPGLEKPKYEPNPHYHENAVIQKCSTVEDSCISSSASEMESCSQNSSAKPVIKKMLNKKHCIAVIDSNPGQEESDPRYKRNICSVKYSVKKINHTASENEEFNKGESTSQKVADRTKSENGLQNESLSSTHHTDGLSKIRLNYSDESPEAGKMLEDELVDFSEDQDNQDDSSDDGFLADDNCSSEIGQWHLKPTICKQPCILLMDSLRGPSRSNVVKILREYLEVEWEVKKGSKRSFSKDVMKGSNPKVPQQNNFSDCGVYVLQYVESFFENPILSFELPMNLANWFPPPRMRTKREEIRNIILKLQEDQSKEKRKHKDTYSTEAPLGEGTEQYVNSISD
It is filed as functional.

Assay [11] deals with Luciferin 4-monooxygenase (Photinus pyralis, UniProt P08659). Nature of the assay: Counter Screen for Luciferase-based Assay Positives. [Related pubchem assays: 620, 618, 411 ]. (In general: Counterscreens check selectivity or assay interference.)

This note sets out measurements from ChEMBL document CHEMBL1201862, “PubChem BioAssay data set” (2004).

Active and inactive are the calls of the source.

Cyclin-dependent kinase 7, sequence (P50613 whole entry): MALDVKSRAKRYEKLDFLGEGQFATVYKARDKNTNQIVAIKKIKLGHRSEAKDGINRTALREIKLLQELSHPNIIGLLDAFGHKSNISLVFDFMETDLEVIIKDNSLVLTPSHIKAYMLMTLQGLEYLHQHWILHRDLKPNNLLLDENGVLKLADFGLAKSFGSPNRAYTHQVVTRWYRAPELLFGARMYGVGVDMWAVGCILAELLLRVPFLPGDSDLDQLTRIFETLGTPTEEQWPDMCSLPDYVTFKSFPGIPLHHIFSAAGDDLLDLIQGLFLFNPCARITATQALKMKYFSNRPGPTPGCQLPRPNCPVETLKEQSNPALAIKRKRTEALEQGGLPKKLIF
Wee1-like protein kinase, sequence (P30291 whole entry): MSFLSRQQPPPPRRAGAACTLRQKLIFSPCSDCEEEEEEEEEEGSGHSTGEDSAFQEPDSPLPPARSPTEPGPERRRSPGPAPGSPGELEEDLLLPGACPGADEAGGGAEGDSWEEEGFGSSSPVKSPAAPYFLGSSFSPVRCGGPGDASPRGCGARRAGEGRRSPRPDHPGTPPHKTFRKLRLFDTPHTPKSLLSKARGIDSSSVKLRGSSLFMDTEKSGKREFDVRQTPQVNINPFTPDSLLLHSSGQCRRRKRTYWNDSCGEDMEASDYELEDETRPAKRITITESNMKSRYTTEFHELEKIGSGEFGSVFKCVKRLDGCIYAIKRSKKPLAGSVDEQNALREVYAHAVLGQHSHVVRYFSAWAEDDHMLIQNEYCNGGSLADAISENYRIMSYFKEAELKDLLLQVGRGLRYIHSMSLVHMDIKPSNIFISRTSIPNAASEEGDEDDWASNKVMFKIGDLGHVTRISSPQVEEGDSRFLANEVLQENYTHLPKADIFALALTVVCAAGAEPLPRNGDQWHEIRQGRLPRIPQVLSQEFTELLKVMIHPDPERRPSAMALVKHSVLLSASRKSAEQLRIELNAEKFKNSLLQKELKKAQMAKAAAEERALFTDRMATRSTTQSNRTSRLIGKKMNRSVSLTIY
Luciferin 4-monooxygenase, sequence (P08659 whole entry): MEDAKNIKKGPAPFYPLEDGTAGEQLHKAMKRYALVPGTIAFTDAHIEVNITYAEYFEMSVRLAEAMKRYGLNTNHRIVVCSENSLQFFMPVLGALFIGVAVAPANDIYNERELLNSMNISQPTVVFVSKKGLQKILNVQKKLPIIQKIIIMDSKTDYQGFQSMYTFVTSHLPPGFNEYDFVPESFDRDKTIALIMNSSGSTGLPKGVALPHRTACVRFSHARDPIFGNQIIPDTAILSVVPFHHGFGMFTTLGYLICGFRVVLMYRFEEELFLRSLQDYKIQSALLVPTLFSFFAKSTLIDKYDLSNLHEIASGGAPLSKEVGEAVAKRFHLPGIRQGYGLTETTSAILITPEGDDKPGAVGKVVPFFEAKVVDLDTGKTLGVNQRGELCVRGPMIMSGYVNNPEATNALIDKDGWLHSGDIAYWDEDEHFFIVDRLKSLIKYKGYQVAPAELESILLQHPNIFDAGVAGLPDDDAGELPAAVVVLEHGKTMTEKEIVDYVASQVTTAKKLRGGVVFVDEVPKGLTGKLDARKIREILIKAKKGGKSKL
Dual specificity protein phosphatase 3, sequence (P51452 whole entry): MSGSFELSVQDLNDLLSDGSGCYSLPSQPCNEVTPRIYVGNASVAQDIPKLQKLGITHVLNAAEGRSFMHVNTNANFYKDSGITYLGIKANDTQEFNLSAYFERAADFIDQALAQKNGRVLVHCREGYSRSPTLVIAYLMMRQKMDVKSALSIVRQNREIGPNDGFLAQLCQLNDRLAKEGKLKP
Histone-lysine N-methyltransferase NSD2, sequence (O96028 whole entry): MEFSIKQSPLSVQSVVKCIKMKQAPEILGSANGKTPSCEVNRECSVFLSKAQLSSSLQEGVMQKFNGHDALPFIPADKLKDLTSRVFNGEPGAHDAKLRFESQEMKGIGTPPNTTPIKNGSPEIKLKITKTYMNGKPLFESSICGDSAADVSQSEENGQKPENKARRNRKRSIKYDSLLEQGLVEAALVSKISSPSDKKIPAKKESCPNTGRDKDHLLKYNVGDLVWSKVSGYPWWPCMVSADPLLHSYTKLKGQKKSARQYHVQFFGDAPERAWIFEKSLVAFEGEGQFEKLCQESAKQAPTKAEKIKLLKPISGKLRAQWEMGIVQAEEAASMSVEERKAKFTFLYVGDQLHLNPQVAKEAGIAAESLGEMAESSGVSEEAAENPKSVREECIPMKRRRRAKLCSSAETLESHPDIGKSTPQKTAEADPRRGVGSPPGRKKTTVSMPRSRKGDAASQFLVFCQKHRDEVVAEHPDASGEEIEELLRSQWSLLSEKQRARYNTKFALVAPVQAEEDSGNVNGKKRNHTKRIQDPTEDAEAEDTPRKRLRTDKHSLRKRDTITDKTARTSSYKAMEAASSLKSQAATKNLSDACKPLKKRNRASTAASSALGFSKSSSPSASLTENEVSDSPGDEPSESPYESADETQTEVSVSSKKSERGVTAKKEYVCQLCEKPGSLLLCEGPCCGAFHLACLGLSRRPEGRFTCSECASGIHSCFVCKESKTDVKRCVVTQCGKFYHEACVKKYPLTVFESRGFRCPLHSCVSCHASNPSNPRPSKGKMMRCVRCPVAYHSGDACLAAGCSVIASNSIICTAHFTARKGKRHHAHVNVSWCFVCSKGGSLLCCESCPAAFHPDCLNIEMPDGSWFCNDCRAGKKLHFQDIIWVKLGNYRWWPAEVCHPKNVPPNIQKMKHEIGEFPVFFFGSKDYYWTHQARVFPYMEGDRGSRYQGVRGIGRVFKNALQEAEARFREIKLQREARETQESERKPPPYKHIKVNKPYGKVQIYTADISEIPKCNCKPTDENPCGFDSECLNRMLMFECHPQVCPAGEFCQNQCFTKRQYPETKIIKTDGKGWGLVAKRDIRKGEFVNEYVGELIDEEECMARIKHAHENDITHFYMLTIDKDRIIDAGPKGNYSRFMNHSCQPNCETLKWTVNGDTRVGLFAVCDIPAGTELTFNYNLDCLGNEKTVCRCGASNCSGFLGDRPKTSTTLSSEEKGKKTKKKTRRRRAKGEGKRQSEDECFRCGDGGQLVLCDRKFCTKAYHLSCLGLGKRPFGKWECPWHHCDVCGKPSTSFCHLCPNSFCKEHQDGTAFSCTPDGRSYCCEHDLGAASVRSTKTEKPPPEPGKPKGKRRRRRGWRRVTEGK
Tyrosine-protein kinase Lyn, sequence (P07948 whole entry): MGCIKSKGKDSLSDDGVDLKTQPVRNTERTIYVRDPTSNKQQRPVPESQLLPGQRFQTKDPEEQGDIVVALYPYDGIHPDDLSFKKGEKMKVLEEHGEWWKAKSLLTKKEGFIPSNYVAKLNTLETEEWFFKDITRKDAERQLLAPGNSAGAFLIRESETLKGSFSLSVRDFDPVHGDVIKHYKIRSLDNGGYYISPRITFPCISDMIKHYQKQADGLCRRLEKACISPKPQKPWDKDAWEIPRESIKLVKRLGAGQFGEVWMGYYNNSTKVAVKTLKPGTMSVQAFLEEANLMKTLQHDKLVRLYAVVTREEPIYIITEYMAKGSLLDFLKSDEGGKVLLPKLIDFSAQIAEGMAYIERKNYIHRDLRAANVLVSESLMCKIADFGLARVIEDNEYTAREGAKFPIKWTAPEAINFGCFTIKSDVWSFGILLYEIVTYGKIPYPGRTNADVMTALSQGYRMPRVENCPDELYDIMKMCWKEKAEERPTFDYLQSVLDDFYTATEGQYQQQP

In the case of `CCn1nc(/C=C/c2ccccc2)nc2c(=O)n(C)c(=O)nc1-2`, the AC50 in assay [1] is 87.9 nM (active); in assay [4], 12 µM (active); in assay [5] it was 184 nM (active). Also, the EC50 in assay [2] is 630 nM (active). Also, the 50% inhibitory concentration (IC50) was 2.24 µM (active) in assay [3] and 10.3 µM (active) in assay [6].

For `COc1cc2c(cc1Nc1nc(Nc3cccc(F)c3C(N)=O)c3cc[nH]c3n1)N(C(=O)CN(C)C)CC2`, the Ki in [7] is 2.51 µM (active); in assay [8], > 1.58 µM (inactive); in [9], > 2.51 µM (inactive).

Take `CC(C)c1ccc(-c2nnn(CCC(=O)O)n2)cc1`: the IC50 in [10] was 9.32 µM (active). Moreover, the EC50 in assay [11] was 4.77 µM (active).

Broadly, the AC50 is the concentration giving half of the maximal activity seen. As a reminder, the EC50 is the concentration at which the effect is half-maximal. Usually IC50 stands for the concentration that inhibits the measured activity by half. One may read the Ki as a measure of affinity in units of concentration, obtained from inhibition or displacement.
